Data taken from patent publication US8476290B2, “Compound having spiro-bonded cyclic group and use thereof” (Ono Pharmaceutical Co., Ltd., priority 2009, dated 2013).

How the values were obtained:
[1] = Blood kinetic test and time (T90) to maintain the IC90 value; type: in vivo, Crl:CD(SD) Rat; settings: time the plasma concentration stays at the PBMC IC90 value or more; rat, intravenous 1 mg/kg
Description: A test compound was weighed, dissolved in WellSolve (trade name; manufactured by Celeste Corporation)/water/physiological saline=1/9/10 which was heated at 60° C. and adjusted to 20 mg/mL. Thereafter, the test compound was diluted by 10 times with distilled water for injection, and further diluted by 2 times with physiological saline. Then, intravenous administration was performed by rapid single administration of an intravenously administered solution (1 mg/kg) from the tail vein of Crl:CD(SD) Rat (male, manufactured by CHARLES RIVER LABORATORIES JAPAN, INC). The administration is conducted under fasting conditions; water is freely ingested. A 0.35 mL blood sample is taken from cervical vein by using Heparinized Syringe at 5 minutes, 15 minutes, 30 minutes, 1 hour, 2 hours, 4 hours, 6 hours, 8 hours, and 24 hours after administration. The obtained blood is stored in ice, and after centrifugation at 12,000 rpm for 5 minutes, blood plasma is fractionated. An internal standard solution (100 μL) and acetonitrile (2 mL) was added to 100 μL of plasma, followed by stirring and further centrifugation at 2,500 rpm for 10 minutes. The supernatant was desiccated by a centrifugal thickener and then 150 μL of an aqueous 67% dimethyl sulfoxide solution was added to the residue thereby dissolving again the residue, and 20 μL of the resultant solution was analyzed by LC/MS/MS.
Analysis by LC/MS/MS was carried out under the following conditions.
A curve of the compound concentration in plasma versus the time of each compound was adapted to a 1 or 2 compartment model using pharmacokinetic analysis software WinNonlin (trade name) (ver4.0.1, Pharsight Corporation).

[2] = test system: X4-HIV-1 strains (for example, HIV-1NL4.3 strains); experiment: HIV infection inhibitory test using PBMC; type: cell-based; settings: human PBMC stimulated with PHA and IL-2, culture 7 days, culture supernatant
Description: Human PBMC (peripheral blood mononuclear cells) was isolated from HIV-negative healthy persons and subjected to stimulated culture in the presence of PHA (Phytohemagulutinin) and IL-2. Stimulated PBMC was inoculated in each of 96-well microplates and X^4-HIV-1 strains (for example, HIV-1NL4.3 strains) were exposed in the co-presence of a test compound. After culturing for 7 days, a reverse transcriptase activity of HIV-1 in the culture supernatant was measured and an inhibitory ratio (%) of the test compound was calculated by the following calculation formula, and a concentration (IC90 value) showing a 90% inhibitory ratio was determined. Inhibition={(Et−Ec)/Et}×100 [Equation 1] Et: reverse transcriptase activity value in the absence of a test compound Ec: reverse transcriptase activity value in the presence of a test compound

CXCR4 = target: T1, CXCR4 (Homo sapiens, UniProt P61073); experiment: Inhibition of binding human SDF-1 to CEM cells; settings: 125I-SDF-1, CEM cells, 4° C., 60 minutes; read-out: concentration showing 50% of an inhibition ratio
T1 construct: a human T cell strain in which CXCR4 is known to be expressed; endogenous in cells; host or cells: CEM cells (human T cell strain)
Description: Specifically, as a system of screening a compound that inhibits the binding between SDF-1 and CXCR4, for example a system of measuring the binding between iodine-labeled SDF-1 and a human T cell strain in which CXCR4 is known to be expressed is operable.
To human T cell strain CEM cells in a binding buffer (containing 2-[4-(2-Hydroxyethyl)-1-piperadinyl]ethansulfonic acid; HEPES and BSA), the test compound and ^125I-SDF-1 (PerkinElmer) were added and the mixture was incubated at 4° C. for 60 minutes. The reacted CEM cells were rapidly filtrated with a GF/B membrane filter plate (Packard) to adsorb. The plate was washed with phosphate buffered saline (hereinafter abbreviated to PBS) three times and then dried. Microscint+20 (Packard) was added thereto. An amount of the radioactivity bound to the CEM cells was measured using Top Count (Packard) and inhibition ratio (%) of the test compound was calculated according to the following equation: Inhibition={(Et−Ea)/(Et−Ec)}×100 [Equation 2] Et: Amount of radioactivity when the test compound is not added, Ec: Amount of radioactivity when non-radioactive SDF-1 (Pepro Tech) is added in an amount of 1,000 times as much as ^125I-SDF-1 as a test compound, and Ea: Amount of radioactivity when the test compound is added.

[3] = test system: CHL/IU (cell line derived from a Chinese hamster lung); experiment: Phospholipid accumulation measurement (phospholipidosis induction); type: cell-based; settings: NBD-PE, about 48 hours, at 400 μM (maximum treatment concentration); positive = 25% or more of maximum increase rate of amiodarone
Description: 100 µL/well as required (1 dose 2 wells) of cell suspension of CHL/IU (cell line derived from a Chinese hamster lung) (7×10^4 cells/mL) prepared by MEM (minimum essential medium) culture medium was added to a 96-well plate (96-well clear-bottom plate), and cultured for about 24 hours. After culture, the supernatant of the 96-well plate was removed, and the 100 μL/well compounds of each concentration dissolved and suspended in a minimum essential medium (MEM) including 25 μM nitrobenzoxazole dipalmitoyl phosphatidylethanolamine (NBD-PE) (hereinafter abbreviated to a NPD-PE medium) were added and treated for about 48 hours. The treatment concentrations of each compound were set to be 5, 50, 100, 200 and 400 μM. The positive control substance was set to be amiodarone hydrochloride, and the treatment concentrations were set to be 1.25, 2.5, 5, 10 and 20 μM. In addition, 5-well untreated controls (only MEM) and 5-well NBD-PE controls (made by means of adding a 1/100 amount of DMSO to the NBD-PE culture medium) were set per compound, and cultured in the same manner. After finishing the culture, the cultures were washed twice with PBS (−) 100 μL/well, and the MEM (100 μL) was added to all of the treatment wells including two empty wells for WST-1 background controls and cultured for about half an hour. The fluorescence intensities of each well were measured by using a microplate reader (manufactured by Molecular Devices Inc., SPECTRA max M2; the excitation wavelength 485 nm/fluorescence wavelength 535 nm). Using the average values of each dose×2 wells, a phospholipid increase rate (%) to the NBD-PE control was calculated by using the following calculating formula: Rate of increase of phospholipid accumulation (%)=100×{(test substance fluorescence intensity−non-treated control fluorescence intensity)/(NBD-PE control fluorescence intensity−non-treated control fluorescence intensity)} 3. Cytotoxicity Test 96-well plate measured in the phospholipid accumulation measurement was measured by means of Plate Reader (manufactured by Molecular Devices Inc., SPECTRA max M2) with the main wavelength of 450 nm and the correct wavelength of 690 nm to calculate a Pre value. An amount of 5 μL/well of Premix WST-1 was added to each of the 96-well plates by which Pre measurement was conducted. After culture for 2 to 4 hours, the 96-well plate was measured as well as the Pre measurement to calculate an Aft value. Then, the background control value was subtracted from the each measured value. A value which was calculated by subtracting the Pre value from the Aft value was used, then the cell growth rate (%) was calculated by using the following calculating formula: Cell growth rate (%)=100×{(test substance OD)/(NBD-PE control OD)} 4. Determination A test dose that indicated value of 25% or more of the maximum phospholipid accumulation increase rate of amiodarone which was the positive control was determined as positive. In addition, the dose whose cell growth rate was equal to or less than 50% in the cytotoxicity test was not used for determination of existence or nonexistence of a phospholipidosis inductive effect.

T1 sequence (P61073 whole entry): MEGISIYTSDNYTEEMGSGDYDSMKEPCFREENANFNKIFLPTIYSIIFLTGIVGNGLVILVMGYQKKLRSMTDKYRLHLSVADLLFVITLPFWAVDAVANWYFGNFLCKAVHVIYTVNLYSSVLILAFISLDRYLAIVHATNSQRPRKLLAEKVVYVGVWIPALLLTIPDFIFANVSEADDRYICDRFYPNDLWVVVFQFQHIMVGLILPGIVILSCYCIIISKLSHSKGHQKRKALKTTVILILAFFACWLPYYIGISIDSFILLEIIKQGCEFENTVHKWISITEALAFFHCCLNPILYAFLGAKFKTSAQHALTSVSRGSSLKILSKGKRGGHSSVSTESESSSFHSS

Row | SMILES | T90 [1] | also measured
1 | COC(=O)c1cc(CN(Cc2ncc[nH]2)Cc2ncc[nH]2)ccc1CN1CCC2(CCN(Cc3sccc3C)CC2)C1 [k] | 14 h | –
2 | CCC(CC)N1CCC2(CC1)C[C@@H](C(N)=O)N(Cc1ccc(CN(Cc3ncc[nH]3)Cc3ncc[nH]3)cc1)C2 [c, (3S)-2-(4-{[bis(1H-imidazol-2-ylmethyl)amino]methyl}benzyl)-8-(1-ethylpropyl)-2,8-diazaspiro[4.5]decane-3-carboxyamide] | 7 h | –
3 | CCC(CC)N1CCC2(CC1)C[C@@H](C(=O)O)N(Cc1ccc(CN(Cc3ncc[nH]3)Cc3ncc[nH]3)cc1)C2 [Example 32(7), (3S)-2-(4-{[bis(1H-imidazol-2-ylmethyl)amino]methyl}benzyl)-8-(1-ethylpropyl)-2,8-diazaspiro[4.5]decane-3-carboxylic acid] | – | IC90 value (concentration showing a 90% inhibitory ratio of HIV-1 reverse transcriptase activity) [2]: 0.23 nM; IC50 (CXCR4): 3.2 nM; phospholipidosis induction activity (determination) [3]: negative
4 | CCC(CC)N1CCC2(CC1)CCN(Cc1ccc(CN(Cc3ncc[nH]3)Cc3ncc[nH]3)cc1)C2C(=O)O (stereo not shown) [f, 2-(4-{[bis(1H-imidazol-2-ylmethyl)amino]methyl}benzyl)-8-(1-ethylpropyl)-2,8-diazaspiro[4.5]decane-1-carboxylic acid] | 6 h | –
5 | O=C(O)c1cc(CN(Cc2ncc[nH]2)Cc2ncc[nH]2)ccc1CN1CCC2(CCN(C3CCCCC3)CC2)C1 [d, 5-{[bis(1H-imidazol-2-ylmethyl)amino]methyl}-2-[(8-cyclohexyl-2,8-diazaspiro[4.5]deca-2-yl)methyl]benzenecarboxylic acid] | 5 h | –
6 | O=C(O)Cn1ccnc1CN(Cc1ccc(CN2CCC3(CCN(C4CCCCC4)CC3)C2)cc1)Cc1ncc[nH]1 [l] | 4 h | –
7 | CCC(CC)N1CCC2(CC1)C[C@@H](C(=O)O)N(Cc1ccc(CN(Cc3ncc[nH]3)Cc3nccn3C)cc1)C2 [Example 37(7), (3S)-8-(1-ethylpropyl)-2-[4-({(1H-imidazol-2-ylmethyl)[(1-methyl-1H-imidazol-2-yl)methyl]amino}methyl)benzyl]-2,8-diazaspiro[4.5]decane-3-carboxylic acid] | – | IC50 (CXCR4): 11.1 nM; phospholipidosis induction activity (determination) [3]: negative
8 | CCC(CC)N1CCC2(CC1)C[C@H](C(=O)O)N(Cc1ccc(CN(Cc3ncc[nH]3)Cc3nccn3C)cc1)C2 [Example 37(6), (3R)-8-(1-ethylpropyl)-2-[4-({(1H-imidazol-2-ylmethyl)[(1-methyl-1H-imidazol-2-yl)methyl]amino}methyl)benzyl]-2,8-diazaspiro[4.5]decane-3-carboxylic acid] | – | IC50 (CXCR4): 11.3 nM; phospholipidosis induction activity (determination) [3]: negative
9 | CC(C)CN1CCC2(CCN(Cc3ccc(CN(Cc4ncc[nH]4)Cc4ncc[nH]4)cc3)C2)CC1C(=O)O (stereo not shown) [g, 2-(4-{[bis(1H-imidazol-2-ylmethyl)amino]methyl}benzyl)-8-isobutyl-2,8-diazaspiro[4.5]decane-7-carboxylic acid] | 2 h | –
10 | CCCN(CC)CCCCN(CC(=O)O)Cc1ccc(CN(Cc2ncc[nH]2)Cc2nccn2C)cc1 [i] | 3 h | –
11 | CCC(CC)N1CCC2(CC1)C[C@H](C(=O)O)N(Cc1ccc(CN(Cc3ncc[nH]3)Cc3ncc[nH]3)cc1)C2 [Example 32(6), (3R)-2-(4-{[bis(1H-imidazol-2-ylmethyl)amino]methyl}benzyl)-8-(1-ethylpropyl)-2,8-diazaspiro[4.5]decane-3-carboxylic acid] | – | IC90 value (concentration showing a 90% inhibitory ratio of HIV-1 reverse transcriptase activity) [2]: 0.27 nM; IC50 (CXCR4): 3.3 nM; phospholipidosis induction activity (determination) [3]: negative

Continued, in another order:

Row | T90 [1] | SMILES | also measured
12 | <1 h | CCOC(=O)C1CC2(CCN(Cc3ccc(C(=O)N(Cc4ncc[nH]4)Cc4ncc[nH]4)cc3)CC2)CN1C1CCCCC1 (stereo not shown) [j] | –
13 | 17 h | CCC(CC)N1CCC2(CC1)CN(Cc1ccc(CN(Cc3ncc[nH]3)Cc3ncc[nH]3)cc1)CC2C(=O)O (stereo not shown) [e, 2-(4-{[bis(1H-imidazol-2-ylmethyl)amino]methyl}benzyl)-8-(1-ethylpropyl)-2,8-diazaspiro[4.5]decane-4-carboxylic acid] | –
14 | 12 h | CCC(CC)N1CCC2(CCN(Cc3ccc(CN(Cc4ncc[nH]4)Cc4ncc[nH]4)cc3)C2)CC1 [b, 1-(4-{[8-[1-ethylpropyl]-2,8-diazaspiro[4.5]deca-2-yl)methyl}phenyl]-N,N-bis(1H-imidazol-2-ylmethyl)methaneamine] | –
15 | 4 h | CCC(CC)N1CCC2(CCN(CCCn3ccnc3CN(Cc3cccc(CC(=O)O)c3)Cc3ncc[nH]3)C2)CC1 [m] | –
16 | 1.2 h | CCC(CC)N1CC2(CCN(Cc3ccc(CN(Cc4ncc[nH]4)Cc4ncc[nH]4)cc3)CC2)CC1C(=O)O (stereo not shown) [h, 8-(4-{[bis(1H-imidazol-2-ylmethyl)amino]methyl}benzyl)-2-(1-ethylpropyl)-2,8-diazaspiro[4.5]decane-3-carboxylic acid] | –
